Experimental data as given in patent US20240228501A1, “IMIDAZOLE-CONTAINING CONDENSED RING DERIVATIVE, PREPARATION METHOD THEREFOR, AND APPLICATION THEREOF IN MEDICINE” (CHANGCHUN GENESCIENCE PHARMACEUTICAL CO., LTD., priority 2021, published 2024).

Target: T1, human NK-3 receptor (Homo sapiens, UniProt P29371)
T1 construct: expressed in transfected cells; host or cells: HEK293
T1 sequence (P29371 1-465): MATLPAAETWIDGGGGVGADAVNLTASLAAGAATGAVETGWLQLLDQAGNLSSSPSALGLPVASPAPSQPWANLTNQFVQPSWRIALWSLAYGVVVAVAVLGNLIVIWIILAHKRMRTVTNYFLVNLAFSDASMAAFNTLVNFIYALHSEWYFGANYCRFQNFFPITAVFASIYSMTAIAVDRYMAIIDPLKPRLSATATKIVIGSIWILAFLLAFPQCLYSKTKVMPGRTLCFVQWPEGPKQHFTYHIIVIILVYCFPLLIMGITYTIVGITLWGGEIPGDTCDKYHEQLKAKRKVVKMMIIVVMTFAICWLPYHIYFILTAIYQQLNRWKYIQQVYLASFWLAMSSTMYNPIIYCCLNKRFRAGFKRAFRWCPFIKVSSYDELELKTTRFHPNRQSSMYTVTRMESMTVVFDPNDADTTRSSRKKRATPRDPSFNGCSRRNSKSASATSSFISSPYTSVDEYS
Assay: Antagonistic activity on human NK-3 receptor in human NK-3R/HEK293 stably transfected cells (Fluo-4, FLIPR, Neurokinin B as agonist)
Type: cell-based
Settings: human NK-3R/HEK293 cells
Procedure: Test Example 1: Determination of Activity of Compounds of the Present Invention on Human NK-3 Receptor
This method is used to determine antagonistic effects of the compounds of the present invention on the activity of human NK-3 receptor proteins expressed in cell lines stably transfected with human NK-3R/HEK293.
2.1 The cell lines stably transfected with human NK-3R/HEK293 were inoculated in a 384-well cell culture plate at a inoculation density of 12,000 cells/well/25 μL, and cultured at 37° C. and 5% CO2 overnight;
2.2 20× Component A was frozen and thawed to room temperature, diluted 2× with Assay Buffer to working concentration, and kept at room temperature for later use;
2.3 The cell culture plate was equilibrated at room temperature for 10 min, the culture medium was removed, and 20 μL of Assay Buffer and 20 μL of 2× Component A […] were added, followed by centrifugation at 200 g at room temperature for 3-5 sec, and incubation at 37° C. for 2 h;
2.4 The compound was diluted 3 times with DMSO in 384 PP_DMSO plate, and then 240 nl/well of the compound was transferred into a working plate with Echo 550, centrifugated at 200 g at room temperature for 1 min; 40 μl of Assay Buffer was added into the working plate, centrifugated at 200 g at room temperature for 1 min, and then fully mixed in an oscillator at 2500 rpm for 20 min, and then centrifugated at 200 g at room temperature for 1 min for later use;
2.5 2.5 nM Neurokinin B TFA (6×) was prepared from Assay Buffer, 50 uL of which was transferred onto 3657 plate for later use;
2.6 The cell culture plate was taken out and left to stand at room temperature for 10 min, then […] the compound diluted in step 2.4 was added into corresponding wells, and the cell culture plate was left to stand at 25° C. for 30 min; and
2.7 10 μL of the compound diluted in step 2.5 was added into the corresponding experimental wells with FLIPR Tetra, and data was collected.
The antagonistic activity of the compounds of the present invention on the human NK-3 receptor was determined through the above experiments, to obtain inhibition curves of the compounds of the present invention and determine concentrations (IC50) of the corresponding compounds that inhibit 50% of the reference agonist.

Compound	IC50 [nM]
Cc1nsc(-c2nc(-c3cc(F)nc(F)c3)c3n2CCN(C(=O)c2ccc(F)cc2)[C@@H]3C)n1 [Compound 053, (R)-(1-(2,6-difluoropyridin-4-yl)-8-methyl-3-(3-methyl-1,2,4-thiadiazol-5-yl)-5,6-dihydroimidazo[1,5-a]pyrazin-7 (8H)-yl)(4-fluorophenyl)methanone]	20.2
Cc1nsc(-c2nc(N3CCNCC3=O)c3n2CCN(C(=O)c2ccc(F)cc2)[C@@H]3C)n1 [Compound 123, (R)-1-(7-(4-fluorobenzoyl)-8-methyl-3-(3-methyl-1,2,4-thiadiazol-5-yl)-5,6,7,8-tetrahydroimidazo[1,5-a]pyrazin-1-yl)piperazin-2-one]	23
CC(=O)N(C)c1nc(-c2nc(C)ns2)n2c1[C@@H](C)N(C(=O)c1ccc(F)cc1)CC2 [Compound 060, (R)—N-(7-(4-fluorobenzoyl)-8-methyl-3-(3-methyl-1,2,4-thiadiazol-5-yl)-5,6,7,8-tetrahydroimidazo[1,5-a]pyrazin-1-yl)-N-methylacetamide]	26.9
Cc1nsc(-c2nc(NS(C)(=O)=O)c3n2CCN(C(=O)c2ccc(F)cc2)[C@@H]3C)n1 [Compound 040, (R)—N-(7-(4-fluorobenzoyl)-8-methyl-3-(3-methyl-1,2,4-thiadiazol-5-yl)-5,6,7,8-tetrahydroimidazo[1,5-a]pyrazin-1-yl)methanesulfonamide]	51.7
Cc1nsc(-c2nc(N3CCCCCC3=O)c3n2CCN(C(=O)c2ccc(F)cc2)[C@@H]3C)n1 [Compound 117]	72.5
C[C@@H]1c2c(N3C[C@H](O)CC3=O)nc(-c3nc(C(F)(F)F)cs3)n2CCN1C(=O)c1ccc(F)cc1 [Compound 120, (R)-1-((R)-7-(4-fluorobenzoyl)-8-methyl-3-(4-(trifluoromethyl)thiazol-2-yl)-5,6,7,8-tetrahydroimidazo[1,5-a]pyrazin-1-yl)-4-hydroxypyrrolidin-2-one]	18.8
Cc1nsc(-c2nc(-c3ccncc3)c3n2CCN(C(=O)c2ccc(F)cc2)[C@@H]3C)n1 [Compound 026, (R)-(4-fluorophenyl)(8-methyl-3-(3-methyl-1,2,4-thiadiazol-5-yl)-1-(pyridin-4-yl)-5,6-dihydroimidazo[1,5-a]pyrazin-7 (8H)-yl)methanone]	35
Cc1cc(-c2nc(-c3nc(C)ns3)n3c2[C@@H](C)N(C(=O)c2ccc(F)cc2)CC3)ccn1 [Compound 043, (R)-(4-fluorophenyl)(8-methyl-3-(3-methyl-1,2,4-thiadiazol-5-yl)-1-(2-methylpyridin-4-yl)-5,6-dihydroimidazo[1,5-a]pyrazin-7 (8H)-yl)methanone]	29.6
C[C@@H]1c2c(N3CCCC3=O)nc(-c3nc(C(F)(F)F)cs3)n2CCN1C(=O)c1ccc(F)cc1 [Compound 118, (R)-1-(7-(4-fluorobenzoyl)-8-methyl-3-(4-(trifluoromethyl)thiazol-2-yl)-5,6,7,8-tetrahydroimidazo[1,5-a]pyrazin-1-yl)pyrrolidin-2-one]	51.7
Cc1nsc(-c2nc(-c3ccncc3F)c3n2CCN(C(=O)c2ccc(F)cc2)[C@@H]3C)n1 [Compound 046, (R)-(4-fluorophenyl)(1-(3-fluoropyridin-4-yl)-8-methyl-3-(3-methyl-1,2,4-thiadiazol-5-yl)-5,6-dihydroimidazo[1,5-a]pyrazin-7 (8H)-yl)methanone]	7.02
Cc1nsc(-c2nc(C(F)F)c3n2CCN(C(=O)c2ccc(F)cc2)[C@@H]3C)n1 [Compound 197, (R)-(1-(difluoromethyl)-8-methyl-3-(3-methyl-1,2,4-thiadiazol-5-yl)-5,6-dihydroimidazo[1,5-a]pyrazin-7 (8H)-yl)(4-fluorophenyl)methanone]	216
COCCc1nc(-c2nc(C)ns2)n2c1C(C)N(C(=O)c1ccc(F)cc1)CC2 (racemic) [Compound 204, rac-(R)-(4-fluorophenyl)(1-(2-methoxyethyl)-8-methyl-3-(3-methyl-1,2,4-thiadiazol-5-yl)-5,6-dihydroimidazo[1,5-a]pyrazin-7 (8H)-yl)methanone]	109
CC(=O)O[C@@H]1CC(=O)N(c2nc(-c3nc(C)ns3)n3c2[C@@H](C)N(C(=O)c2ccc(F)cc2)CC3)C1 [Compound 133, (R)-1-[(R)-7-(4-fluorobenzoyl)-8-methyl-3-(3-methyl-1,2,4-thiadiazol-5-yl)-5,6,7,8-tetrahydroimidazo[1,5-a]pyrazin-1-yl]-5-oxopyrrolidin-3-ylacetate]	18.6
Cc1nsc(-c2nc(N3CCN(C)CC3=O)c3n2CCN(C(=O)c2ccc(F)cc2)[C@@H]3C)n1 [Compound 084]	23.7
Cc1nsc(-c2nc(N3C[C@H](O)CC3=O)c3n2CCN(C(=O)c2ccc(F)cc2)[C@@H]3C)n1 [Compound 103, (R)-1-((R)-7-(4-fluorobenzoyl)-8-methyl-3-(3-methyl-1,2,4-thiadiazol-5-yl)-5,6,7,8-tetrahydroimidazo[1,5-a]pyrazin-1-yl)-4-hydroxypyrrolidin-2-one]	5.7
Cc1nsc(-c2nc(N3CCOCC3=O)c3n2CCN(C(=O)c2ccc(F)cc2)[C@@H]3C)n1 [Compound 072, (R)-4-(7-(4-fluorobenzoyl)-8-methyl-3-(3-methyl-1,2,4-thiadiazol-5-yl)-5,6,7,8-tetrahydroimidazo[1,5-a]pyrazin-1-yl)morpholin-3-one]	16.8
Cc1nsc(-c2nc(N3CCC(O)CC3=O)c3n2CCN(C(=O)c2ccc(F)cc2)[C@@H]3C)n1 (stereo partly drawn) [Compound 116, 1-[(R)-7-(4-fluorobenzoyl)-8-methyl-3-(3-methyl-1,2,4-thiadiazol-5-yl)-5,6,7,8-tetrahydroimidazo[1,5-a]pyrazin-1-yl]-4-hydroxypiperidin-2-one]	11.9
Cc1nsc(-c2nc(N3CCCCC3=O)c3n2CCN(C(=O)c2ccc(F)cc2)[C@@H]3C)n1 [Compound 069, (R)-1-(7-(4-fluorobenzoyl)-8-methyl-3-(3-methyl-1,2,4-thiadiazol-5-yl)-5,6,7,8-tetrahydroimidazo[1,5-a]pyrazin-1-yl)piperidin-2-one]	7.43
Cc1nsc(-c2nc(N(C)S(C)(=O)=O)c3n2CCN(C(=O)c2ccc(F)cc2)[C@@H]3C)n1 [Compound 064, (R)—N-(7-(4-fluorobenzoyl)-8-methyl-3-(3-methyl-1,2,4-thiadiazol-5-yl)-5,6,7,8-tetrahydroimidazo[1,5-a]pyrazin-1-yl)-N-methylmethanesulfonamide]	80.1
Cc1nsc(-c2nc(-c3ccnnc3)c3n2CCN(C(=O)c2ccc(F)cc2)[C@@H]3C)n1 [Compound 028, (R)-(4-fluorophenyl)(8-methyl-3-(3-methyl-1,2,4-thiadiazol-5-yl)-1-(pyridazin-4-yl)-5,6-dihydroimidazo[1,5-a]pyrazin-7 (8H)-yl)methanone]	56.3
